The source of these data is ChEMBL document CHEMBL5370669, “Isolation and Structure Determination of Akunolides, Macrolide Glycosides from a Marine Okeania sp. Cyanobacterium” (J Nat Prod, 2023).

Data set [1] in a line: Growth inhibition of human WI-38 cells incubated for 72 hrs by MTT assay. The data set is classed as toxicity, cell-based.
Data set [2] deals with Trypanosoma brucei rhodesiense. The data set can be described thus: Antitrypanosomal activity against blood stream form of Trypanosoma brucei rhodesiense IL-1501 assessed as growth inhibition incubated for 69 hrs by alamar blue staining based microplate fluorescence scanner analysis. The format is functional, organism-based. The conditions noted are these: IL-1501, 69 h.
The nature of data set [3]: Selectivity ratio of IC50 for cytotoxicity against human WI-38 cells to IC50 for antitrypanosomal activity against Trypanosoma brucei rhodesiense IL-1501. The format is toxicity, cell-based.

For orientation: IC50 means the concentration needed to halve the response being measured.

For the molecule `CCCCC/C=C/C=C/[C@H]1OC(=O)C[C@@H]2O[C@H](C[C@H](O)C[C@H](C)C[C@@H](O)C1(C)C)C[C@H](O[C@@H]1OC[C@@H](OC)[C@H](O)[C@H]1O)C2(C)C`, in data set [1], it took 49 µM to reach half-maximal inhibition (IC50 at 72 h). The IC50 in data set [2] came out at 14 µM.
On to `C=CCCC/C=C/C=C/[C@H]1OC(=O)C[C@@H]2O[C@H](C[C@H](O)C[C@H](C)C[C@@H](O)C1(C)C)C[C@H](O[C@@H]1OC[C@@H](OC)[C@H](OC)[C@H]1O)C2(C)C`, for which the half-maximal inhibitory concentration (IC50) at 72 h in data set [1] turned out to be 55 µM. Moreover, the selectivity ratio in data set [3] is 5. In addition, the IC50 in data set [2] stood at 11 µM.
The matching figures for `C#CCCC/C=C/C=C/[C@H]1OC(=O)C[C@@H]2O[C@H](C[C@H](O)C[C@H](C)C[C@@H](O)C1(C)C)C[C@H](O[C@@H]1OC[C@@H](OC)[C@H](OC)[C@H]1O)C2(C)C`: greater than 150 µM, greater than 15 and 11 µM.
The matching figures for `C=CCCC/C=C/C=C/[C@H]1OC(=O)C[C@@H]2O[C@H](C[C@H](O)C[C@H](C)C[C@@H](O)C1(C)C)C[C@H](O[C@@H]1OC[C@@H](OC)[C@H](O)[C@H]1O)C2(C)C`: greater than 150 µM, greater than 15 and 12 µM.
For `N=C(N)c1ccc(OCCCCCOc2ccc(C(=N)N)cc2)cc1` [PENTAMIDINE], the IC50 in data set [2] was determined as 0.006 µM.
